Laboratory results published in US20230355599A1, “BIOMARKERS FOR CBL, AND COMPOSITIONS AND METHODS FOR THEIR USE” (NURIX THERAPEUTICS, INC., priority 2022, published 2023).

Key:
phosphorylated ZAP70 = assay: Phosphorylated ZAP70 in circulating CD8+ T cells of patients, Phase 1 trial (flow cytometry); assay type: in vivo, human
Procedure: [The procedure below names another target; the source lists this target under the same test.] (§1) Pharmacodynamic analysis of the proximal biomarker, phosphorylated HS1 is assessed in circulating CD8^+ T cells from patients that are being administered doses ranging from 5 to 50 mg of Compound 23 once daily and is being used to assess target engagement of Compound 23 as part of the dose/exposure-response profile. Whole blood is collected longitudinally and added into two types of TruCulture (Myriad) tubes. One tube contains media, and the second tube contains anti-CD3 and anti-CD28, which are subsequently crosslinked to induce cellular stimulation for pharmacodynamic analysis. Phosphorylated HS1 is assessed by flow cytometry pre and post dose on Cycle 1 Day 1 (C1D1) and Cycle 2 Day 1 (C2D1) to characterize single/multiple dose PD profiles.
(§2) % Maximal phosphorylated signal and % AUC are two commonly used parameters to assess the pharmacodynamic effects of drugs.
(§3) % Maximal phosphorylated signal refers to the maximum amount of a specific protein that becomes phosphorylated (i.e., modified by the addition of a phosphate group) in response to a drug or other stimulus. This parameter is often used to measure the activation of signaling pathways that are important for various cellular processes, including cell growth and differentiation, immune response, and metabolism.
(§4) % AUC, on the other hand, refers to the area under the curve (AUC) over time, expressed as a percentage of the maximum possible AUC. In summary, both % maximal phosphorylated signal and % AUC are useful parameters to assess the pharmacodynamic effects of drugs. % maximal phosphorylated signal is a measure of the activation of signaling pathways, while % AUC reflects the duration of the effect on PD signals. Both parameters can be used to evaluate the potency and duration of a drug's pharmacodynamic effects.

pY759-PLCg2 = assay: Phosphoprotein screen in human whole blood with CBL inhibitor at 10 uM: PLCγ2; assay type: cell-based; details: 1 hr 37° C., human whole blood 8 donors, anti-CD3/CD28 + crosslinker 60 minutes
Procedure: (§5) To identify proximal biomarkers of CBL-B inhibition in immune cells, a panel of phosphorylated proteins were screened in human whole blood incubated with CBL-B inhibitor and concomitant anti-CD3 and anti-CD28 antibodies. The effect of CBL-B inhibition was assessed across multiple cellular signaling networks.
(§6) Human heparinized whole blood from 8 donors was received after an overnight shipment at 4° C. The blood was plated, treated with CBL inhibitor at 10 uM and incubated at 37° C. for 60 minutes. After incubation, the cells were stimulated with anti-CD3/CD28 followed by a cross-linking antibody (30 μg of goat anti-mouse IgG (H+L) antibody (Invitrogen)). After 60 minutes, the cells were fixed, and stained using surface markers for T cells (CD3^+CD4^+& CD3^+CD8^+) and analyzed by flow cytometry for target phosphorylation of the following markers: pY180/pY511-ITK, pY397-HS1, pY759-PLCg2, pY783-PLCg1, pY525/pY526/pY348-SYK & pY319-Zap70.
(§7) Fold change of each biomarker was calculated with the following example equation: […]
(§8) Whole blood from eight human donors was collected in sodium heparin anti-coagulant treated with 10 μM of Compound 23 for 1 hr at 37° C. […] Fold change of % phosphorylation normalized to DMSO was quantitated in T cells (CD8^+) using flow cytometry is provided in FIGS. 6A-6B.

phosphorylated PLCγ2 = assay: Phosphorylated PLCγ2 in circulating CD8+ T cells of patients, Phase 1 trial (flow cytometry); assay type: in vivo, human
Procedure: [The procedure below names another target; the source lists this target under the same test.] as §1, §2, §3, §4

pY783-PLCg1 = assay: Phosphoprotein screen in human whole blood with CBL inhibitor at 10 uM: PLCγ1; assay type: cell-based; details: 1 hr 37° C., human whole blood 8 donors, anti-CD3/CD28 + crosslinker 60 minutes
Procedure: as §5, §6, §7, §8

pY319-Zap70 = assay: Phosphoprotein screen in human whole blood with CBL inhibitor at 10 uM: ZAP70; assay type: cell-based; details: 1 hr 37° C., human whole blood 8 donors, anti-CD3/CD28 + crosslinker 60 minutes
Procedure: as §5, §6, §7, §8

phosphorylated HS1 = assay: HS1 phosphorylation in stimulated CD8+ T cells of mice after a single oral dose (flow cytometry); assay type: in vivo
Procedure: To assess the in vivo effects of Compound 23 on candidate clinical proximal biomarkers of CBL-B inhibition and compare them to anti-tumor efficacy, two experiments were performed in mice. In the first experiment, whole blood was obtained from groups of mice (n=4 per group) administered a single oral dose of either vehicle (0.5% MC/0.2% polysorbate 80 in deionized water) or increasing doses of Compound 23 at 0.3, 1, 3, 10, 30, or 90 mg/kg. The response to Compound 23 on HS1 activation was measured in anti-CD3 and anti-CD28 stimulated CD8^+ T cells using flow cytometry. Compound 23 induced a dose-dependent increase in the proportion of phosphorylated HS1^+CD8^+ in the presence of anti-CD3 and anti-CD28 co-stimulation. The greatest induction of phosphorylated HS1 was observed upon ex vivo stimulation following administration of Compound 23 doses of ≥10 mg/kg. […] Statistical significance was calculated using 2-way ANOVA with Dunnett's multiple comparisons test.

pY397-HS1 = assay: Phosphoprotein screen in human whole blood with CBL inhibitor at 10 uM: HS1; assay type: cell-based; details: 1 hr 37° C., human whole blood 8 donors, anti-CD3/CD28 + crosslinker 60 minutes
Procedure: as §5, §6, §7, §8

[1] = 5 mg once daily, n=1, cycle 1, day 1
[2] = 15 mg once daily, n=12, cycle 1, day 1
[3] = 25 mg once daily, n=7, cycle 1, day 1
[4] = 50 mg once daily, n=2, cycle 1, day 1

Question: `C[C@H]1CCCN(Cc2cc3c(c(C(F)(F)F)c2)CN(c2cccc([C@]4(c5nncn5C)C[C@@H](C)C4)c2)C3=O)C1` [Compound 23] was tested. Which “% of phosphorylated ZAP70 expressing CD8+ T cells (maximal)” value (phosphorylated ZAP70; [1]) did it give?
Answer: The value was 47%.

Question: And the “phosphorylated ZAP70 AUC” value (phosphorylated ZAP70; [1])?
Answer: The value was 734.

Question: And the “% of phosphorylated ZAP70 expressing CD8+ T cells (maximal)” value (phosphorylated ZAP70; [2])?
Answer: The value was 83%.

Question: And the “phosphorylated ZAP70 AUC” value (phosphorylated ZAP70; [2])?
Answer: Its value is 1641.

Question: What about the “% of phosphorylated ZAP70 expressing CD8+ T cells (maximal)” value (phosphorylated ZAP70; [3]) of the same compound?
Answer: Its value is 82%.

Question: And the “phosphorylated ZAP70 AUC” value (phosphorylated ZAP70; [3])?
Answer: Its value is 1506.

Question: What about the “% of phosphorylated ZAP70 expressing CD8+ T cells (maximal)” value (phosphorylated ZAP70; [4]) of the same compound?
Answer: Its value is 85%.

Question: What about the “phosphorylated ZAP70 AUC” value (phosphorylated ZAP70; [4]) of the same compound?
Answer: Its value is 1870.

Question: What about the “trend of maximal % pZAP70 with PK” value (phosphorylated ZAP70; not statistically significant, p=0.06) of the same compound?
Answer: The value was “Positive trend”.

Question: What about the “increased phosphorylation of PLCγ2 compared to DMSO control” value (pY759-PLCg2) of the same compound?
Answer: The value was 3-4 fold.

Question: What about the “trend of maximal or AUC % pPLCγ2 with PK” value (phosphorylated PLCγ2) of the same compound?
Answer: Its value is “No apparent trend”.

Question: And the “% of phosphorylated PLCγ2 expressing CD8+ T cells (maximal)” value (phosphorylated PLCγ2; [1])?
Answer: Its value is 56%.

Question: What about the “phosphorylated PLCγ2 AUC” value (phosphorylated PLCγ2; [1]) of the same compound?
Answer: The value was 1003.

Question: And the “% of phosphorylated PLCγ2 expressing CD8+ T cells (maximal)” value (phosphorylated PLCγ2; [2])?
Answer: Its value is 81%.

Question: What about the “phosphorylated PLCγ2 AUC” value (phosphorylated PLCγ2; [2]) of the same compound?
Answer: Its value is 1616.

Question: And the “% of phosphorylated PLCγ2 expressing CD8+ T cells (maximal)” value (phosphorylated PLCγ2; [3])?
Answer: The value was 85%.

Question: And the “phosphorylated PLCγ2 AUC” value (phosphorylated PLCγ2; [3])?
Answer: The value was 1807.

Question: And the “% of phosphorylated PLCγ2 expressing CD8+ T cells (maximal)” value (phosphorylated PLCγ2; [4])?
Answer: Its value is 75%.

Question: What about the “phosphorylated PLCγ2 AUC” value (phosphorylated PLCγ2; [4]) of the same compound?
Answer: The value was 1706.

Question: What about the “increased phosphorylation of PLCγ1 compared to DMSO control” value (pY783-PLCg1) of the same compound?
Answer: Its value is 2-3 fold.

Question: What about the “increased phosphorylation of ZAP70 compared to DMSO control” value (pY319-Zap70) of the same compound?
Answer: Its value is 2-3 fold.

Question: And the “proximal biomarker pHS1 that correlates with the efficacious range” value (phosphorylated HS1; pHS1+CD8+ T cells, mouse syngeneic tumor models, therapeutic range)?
Answer: The value was “approximately 50%”.

Question: And the “minimum biological effect level observed in mice (EC50), phosphorylated HS1+ CD8+” value (phosphorylated HS1; single oral dose 0.3-90 mg/kg, anti-CD3 and anti-CD28 stimulated CD8+ T cells)?
Answer: The value was 12 mg/kg.

Question: And the “doses giving the greatest induction of phosphorylated HS1” value (phosphorylated HS1; single oral dose, ex vivo stimulation)?
Answer: Its value is ≥ 10 mg/kg.

Question: And the “increased phosphorylation of HS1 compared to DMSO control” value (pY397-HS1)?
Answer: The value was 3-4 fold.
